{
  "source": "paper PMC5372594",
  "about": "(International Journal of Molecular Sciences, 2017)",
  "key": {"GLP-1R [1]": {"target": "T1, GLP-1R (Homo sapiens, UniProt P43220)", "T1 construct": "expressed in transfected cells", "T1 sequence (P43220 24-463)": "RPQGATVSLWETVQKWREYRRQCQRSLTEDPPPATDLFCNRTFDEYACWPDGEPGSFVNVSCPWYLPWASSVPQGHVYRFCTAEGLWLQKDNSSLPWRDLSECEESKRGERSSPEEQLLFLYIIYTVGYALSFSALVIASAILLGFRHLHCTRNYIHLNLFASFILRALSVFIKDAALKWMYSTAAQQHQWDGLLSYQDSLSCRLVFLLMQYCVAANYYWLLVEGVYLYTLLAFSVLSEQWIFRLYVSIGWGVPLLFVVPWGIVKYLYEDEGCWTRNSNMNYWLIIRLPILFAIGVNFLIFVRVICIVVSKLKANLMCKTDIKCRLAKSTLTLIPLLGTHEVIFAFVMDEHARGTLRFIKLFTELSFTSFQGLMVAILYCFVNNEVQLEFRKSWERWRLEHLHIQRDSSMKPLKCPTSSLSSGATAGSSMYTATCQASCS", "test": "CRE-luciferase reporter-gene assay, CHO cells stably expressing human GLP-1 receptor", "format": "cell-based", "settings": "4-h culture with peptide, 10-step 5-fold dilution from 250 nmol/L, mean ± SEM, n = 3", "experimental": "A cyclic adenosine monophosphate response element (CRE)-luciferase based reporter-gene assays, as a surrogate for cyclic adenosine monophosphate (cAMP) formation, were used to measure the abilities of the analogs to activate GLP-1R.\nCells were grown at 37 °C with 5% CO2 in Dulbecco’s modified Eagle’s medium-F12 supplemented with 10% fetal bovine serum (FBS), 4.5 g/L glucose, 100 units/ml penicillin, 100 mg/mL streptomycin, 0.6 mg/mL hygromycin B and 1 mg/mL G418. […] Each well contained 20,000 cells. The initial concentration of each analog and positive control was 250 nmol/L, which was diluted 5 times to produce a 10-step gradient, and each well contained 20 μL. After 4-h culture, 100 μL of a chemical light-emitting substrate was added to each well. Fluorescence was measured with an EnVision 2104 Multilabel Reader (PerkinElmer, Houston, TX, USA) after a 40-min oscillation at 25 °C."}, "trypsin [2]": {"tested_on": "trypsin", "test": "trypsin", "settings": "up to 60 min"}, "trypsin [3]": {"tested_on": "trypsin", "test": "Trypsin resistance measured by HPLC (residue rate)", "format": "in vitro ADME", "from_the_text": "The substrate was hydrolyzed with trypsin, and the peak area of the sample, which added the stop-buffer at the start point, was set to 100%."}, "GLP-1R [4]": {"target": "T1, GLP-1R", "test": "CHO cell cAMP accumulation assay (ELISA)", "format": "cell-based", "settings": "30 min incubation, 0.5 mM IBMX, 3-parameter non-linear regression, n = 3", "experimental": "CHO cells were stably transfected with GLP-1R and grown in conditions described above. […] After 4-h culture, cells were treated with compounds diluted in assay buffer to concentrations within the 10^−4–10^4 nM range and incubated for 30 min. Cells were lysed by freezing and thawing three times. The samples were then assayed according to the cAMP ELISA assay kit protocol (Jiancheng, Nanjing, China)."}, "[5]": {"settings": "mouse, in vivo", "experimental": "(§1) Retro orbital blood collections were performed on mice at different time points (0, 1, 2, 3, 4, 6, 8, 10 and 12 h)."}, "in vivo": {"test": "in vivo", "settings": "male, C57BL/6J, mouse", "experimental": "as §1"}},
  "note": "Peptide text beside a SMILES is read from it.",
  "data": [
    {"molecule": "CC[C@H](C)[C@H](NC(=O)[C@H](Cc1ccccc1)NC(=O)[C@H](CC(C)C)NC(=O)[C@H](Cc1ccc(O)cc1)NC(=O)[C@@H](NC(=O)[C@H](C)NC(=O)[C@H](CCC(=O)O)NC(=O)[C@H](CCC(=O)O)NC(=O)[C@H](CCC(=O)O)NC(=O)[C@H](CCSC)NC(=O)[C@H](CCC(N)=O)NC(=O)[C@H](CCSC)NC(=O)[C@H](CO)NC(=O)[C@H](CC(C)C)NC(=O)[C@H](CC(=O)O)NC(=O)[C@H](CO)NC(=O)[C@@H](NC(=O)[C@H](Cc1ccccc1)NC(=O)[C@@H](NC(=O)CNC(=O)[C@H](CCC(=O)O)NC(=O)CNC(=O)[C@@H](N)Cc1c[nH]cn1)[C@@H](C)O)[C@@H](C)O)C(C)C)C(=O)N[C@@H](CCC(=O)O)C(=O)N[C@@H](Cc1c[nH]c2ccccc12)C(=O)N[C@@H](CC(C)C)C(=O)N[C@@H](CCSC)C(=O)N[C@@H](CC(N)=O)C(=O)NCC(=O)NCC(=O)N1CCC[C@H]1C(=O)N[C@@H](CO)C(=O)N[C@@H](CO)C(=O)NCC(=O)N[C@@H](C)C(=O)N1CCC[C@H]1C(=O)N1CCC[C@H]1C(=O)N1CCC[C@H]1C(=O)N[C@@H](CO)C(=O)N[C@@H](CS)C(=O)O", "note": "[TSME-4] (H-HGEGTFTSDLSMQMEEEAVYLFIEWLMNGGPSSGAPPPSC-OH)", "values": [
      {"measurement": "EC50", "setting": "GLP-1R [1]", "value": 31.2, "unit": "nM"}
    ]},
    {"molecule": "HGEGTFTSDLSMQMEEEAVLLFIEWLMNGGPSSGAPPPSC", "values": [
      {"measurement": "not cleaved", "setting": "trypsin [2]", "value": 100, "unit": "% at 60 min"}
    ]},
    {"molecule": "CC[C@H](C)[C@H](NC(=O)[C@H](CC(C)C)NC(=O)[C@H](Cc1c[nH]c2ccccc12)NC(=O)[C@H](CCC(=O)O)NC(=O)[C@@H](NC(=O)[C@H](Cc1ccccc1)NC(=O)[C@H](CC(C)C)NC(=O)[C@H](Cc1ccc(O)cc1)NC(=O)[C@@H](NC(=O)[C@H](C)NC(=O)[C@H](CCC(=O)O)NC(=O)[C@H](CCC(=O)O)NC(=O)[C@H](CCC(=O)O)NC(=O)[C@H](CCSC)NC(=O)[C@H](CCC(N)=O)NC(=O)[C@@H](NC(=O)[C@H](CO)NC(=O)[C@H](CC(C)C)NC(=O)[C@H](CC(=O)O)NC(=O)[C@H](CO)NC(=O)[C@@H](NC(=O)[C@H](Cc1ccccc1)NC(=O)[C@@H](NC(=O)CNC(=O)[C@H](CCC(=O)O)NC(=O)CNC(=O)[C@@H](N)Cc1c[nH]cn1)[C@@H](C)O)[C@@H](C)O)[C@@H](C)CC)C(C)C)[C@@H](C)CC)C(=O)N[C@@H](CC(N)=O)C(=O)NCC(=O)NCC(=O)N1CCC[C@H]1C(=O)N[C@@H](CO)C(=O)N[C@@H](CO)C(=O)NCC(=O)N[C@@H](C)C(=O)N1CCC[C@H]1C(=O)N1CCC[C@H]1C(=O)N1CCC[C@H]1C(=O)N[C@@H](CO)C(=O)N[C@@H](CS)C(=O)O", "note": "[TSME-5] (H-HGEGTFTSDLSIQMEEEAVYLFIEWLINGGPSSGAPPPSC-OH)", "values": [
      {"measurement": "EC50", "setting": "GLP-1R [1]", "value": 8.83, "unit": "nM"}
    ]},
    {"molecule": "CC[C@H](C)[C@H](NC(=O)[C@H](Cc1ccccc1)NC(=O)[C@H](CC(C)C)NC(=O)[C@H](CC(C)C)NC(=O)[C@@H](NC(=O)[C@H](C)NC(=O)[C@H](CCC(=O)O)NC(=O)[C@H](CCC(=O)O)NC(=O)[C@H](CCC(=O)O)NC(=O)[C@H](CCSC)NC(=O)[C@H](CCC(N)=O)NC(=O)[C@H](CCSC)NC(=O)[C@H](CO)NC(=O)[C@H](CC(C)C)NC(=O)[C@H](CC(=O)O)NC(=O)[C@H](CO)NC(=O)[C@@H](NC(=O)[C@H](Cc1ccccc1)NC(=O)[C@@H](NC(=O)CNC(=O)[C@H](CCC(=O)O)NC(=O)CNC(=O)[C@@H](N)Cc1c[nH]cn1)[C@@H](C)O)[C@@H](C)O)C(C)C)C(=O)N[C@@H](CCC(=O)O)C(=O)N[C@@H](Cc1c[nH]c2ccccc12)C(=O)N[C@@H](CC(C)C)C(=O)N[C@@H](CCSC)C(=O)N[C@@H](CC(N)=O)C(=O)NCC(=O)NCC(=O)N1CCC[C@H]1C(=O)N[C@@H](CO)C(=O)N[C@@H](CO)C(=O)NCC(=O)N[C@@H](C)C(=O)N1CCC[C@H]1C(=O)N1CCC[C@H]1C(=O)N1CCC[C@H]1C(=O)N[C@@H](CO)C(=O)N[C@@H](CS)C(=O)O", "note": "[TSME-1] (H-HGEGTFTSDLSMQMEEEAVLLFIEWLMNGGPSSGAPPPSC-OH)", "values": [
      {"measurement": "Residue rate at 30 min", "setting": "trypsin [3]", "value": "100% ± 0%"},
      {"measurement": "remaining at 1 h", "setting": "trypsin [3]; isolated enzyme trypsin", "value": 100, "unit": "%"},
      {"measurement": "EC50", "setting": "GLP-1R [1]", "value": 0.38, "unit": "nM"},
      {"measurement": "EC50", "setting": "GLP-1R [4]", "value": 1.1, "unit": "nM"},
      {"measurement": "Relative bioavailability", "setting": "[5]", "value": 0.881, "unit": "%"},
      {"measurement": "Time to peak concentration", "setting": "[5]; po", "value": "An hour"},
      {"measurement": "AUC(0-t)", "setting": "in vivo; po", "value": "0.56 ± 0.15", "unit": "ng·h/mL"},
      {"measurement": "Cmax", "setting": "in vivo; po, 2.12 mg/kg", "value": "0.2 ± 0.05", "unit": "ng/mL"},
      {"measurement": "AUC(0-t)", "setting": "in vivo; sc", "value": "3.17 ± 0.72", "unit": "ng·h/mL"}
    ]},
    {"molecule": "CC[C@H](C)[C@H](NC(=O)[C@H](Cc1ccccc1)NC(=O)[C@H](CC(C)C)NC(=O)[C@@H](NC(=O)[C@@H](NC(=O)[C@H](C)NC(=O)[C@H](CCC(=O)O)NC(=O)[C@H](CCC(=O)O)NC(=O)[C@H](CCC(=O)O)NC(=O)[C@H](CCSC)NC(=O)[C@H](CCC(N)=O)NC(=O)[C@@H](NC(=O)[C@H](CO)NC(=O)[C@H](CC(C)C)NC(=O)[C@H](CC(=O)O)NC(=O)[C@H](CO)NC(=O)[C@@H](NC(=O)[C@H](Cc1ccccc1)NC(=O)[C@@H](NC(=O)CNC(=O)[C@H](CCC(=O)O)NC(=O)CNC(=O)[C@@H](N)Cc1c[nH]cn1)[C@@H](C)O)[C@@H](C)O)C(C)C)C(C)C)C(C)C)C(=O)N[C@@H](CCC(=O)O)C(=O)N[C@@H](Cc1c[nH]c2ccccc12)C(=O)N[C@@H](CC(C)C)C(=O)N[C@H](C(=O)N[C@@H](CC(N)=O)C(=O)NCC(=O)NCC(=O)N1CCC[C@H]1C(=O)N[C@@H](CO)C(=O)N[C@@H](CO)C(=O)NCC(=O)N[C@@H](C)C(=O)N1CCC[C@H]1C(=O)N1CCC[C@H]1C(=O)N1CCC[C@H]1C(=O)N[C@@H](CO)C(=O)N[C@@H](CS)C(=O)O)C(C)C", "note": "[TSME-3] (H-HGEGTFTSDLSVQMEEEAVVLFIEWLVNGGPSSGAPPPSC-OH)", "values": [
      {"measurement": "EC50", "setting": "GLP-1R [1]", "value": 19.2, "unit": "nM"}
    ]}
  ]
}
